Measurements as given in ChEMBL document CHEMBL1641539 (Bioorg Med Chem Lett, 2011).

Assays:
[1] = molecular target: Eukaryotic elongation factor 2 kinase (Homo sapiens) (UniProt O00418); experiment: Inhibition of human eEF-2K at 10 uM after 60 mins by TR-FRET assay; values are per cent of control
[2] = molecular target: Serine/threonine-protein kinase pim-2 (Homo sapiens) (UniProt Q9P1W9); experiment: Inhibition of human Pim-2 at 10 uM after 60 mins by TR-FRET assay; values are per cent of control
[3] = molecular target: Homeodomain-interacting protein kinase 1 (Homo sapiens) (UniProt Q86Z02); experiment: Inhibition of human HIPK1 at 10 uM after 60 mins by TR-FRET assay; values are per cent of control
[4] = molecular target: Tyrosine-protein kinase TXK (Homo sapiens) (UniProt P42681); experiment: Inhibition of human Txk at 10 uM after 60 mins by TR-FRET assay; values are per cent of control
Tyrosine-protein kinase TXK (Homo sapiens), sequence (P42681 whole entry): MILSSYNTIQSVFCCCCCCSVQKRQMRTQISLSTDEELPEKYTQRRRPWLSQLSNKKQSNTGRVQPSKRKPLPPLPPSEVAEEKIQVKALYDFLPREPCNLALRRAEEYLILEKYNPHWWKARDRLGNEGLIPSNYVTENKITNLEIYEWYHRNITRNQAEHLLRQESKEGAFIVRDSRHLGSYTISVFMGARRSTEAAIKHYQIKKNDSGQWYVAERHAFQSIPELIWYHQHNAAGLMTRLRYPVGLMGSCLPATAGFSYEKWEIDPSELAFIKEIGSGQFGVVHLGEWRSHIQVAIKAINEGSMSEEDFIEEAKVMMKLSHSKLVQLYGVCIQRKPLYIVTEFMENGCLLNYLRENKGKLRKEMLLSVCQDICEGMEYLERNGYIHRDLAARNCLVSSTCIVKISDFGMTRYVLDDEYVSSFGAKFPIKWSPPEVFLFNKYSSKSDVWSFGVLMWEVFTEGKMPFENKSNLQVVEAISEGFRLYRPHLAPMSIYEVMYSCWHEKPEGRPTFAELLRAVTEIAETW

[5] = molecular target: Serine/threonine-protein kinase MARK2 (Homo sapiens) (UniProt Q7KZI7); experiment: Inhibition of human PAR-1Balpha at 10 uM after 60 mins by TR-FRET assay; values are per cent of control
[6] = molecular target: Insulin receptor (Homo sapiens) (UniProt P06213); experiment: Inhibition of human IR at 10 uM after 60 mins by TR-FRET assay; values are per cent of control
[7] = molecular target: Protein kinase C epsilon type (Homo sapiens) (UniProt Q02156); experiment: Inhibition of human PKCepsilon at 10 uM after 60 mins by TR-FRET assay; values are per cent of control
[8] = species: Homo sapiens; experiment: Inhibition of human PKA at 10 uM after 60 mins by TR-FRET assay; values are per cent of control
[9] = molecular target: Ephrin type-B receptor 2 (Homo sapiens) (UniProt P29323); experiment: Inhibition of human EphB2 at 10 uM after 60 mins by TR-FRET assay; conditions: values are per cent of control
[10] = molecular target: mTOR/FKBP12A/FKBP12B (Homo sapiens) (UniProt P62942+P68106+P42345); experiment: Inhibition of human mTOR/FKBP12 at 10 uM after 60 mins by TR-FRET assay; type: protein-complex assay; conditions: values are per cent of control
mTOR/FKBP12A/FKBP12B (Homo sapiens), sequence (P62942 2-108 limits assumed, other chains not shown): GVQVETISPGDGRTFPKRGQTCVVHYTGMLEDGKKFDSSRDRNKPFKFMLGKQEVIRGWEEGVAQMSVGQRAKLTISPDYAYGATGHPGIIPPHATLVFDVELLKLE
mTOR/FKBP12A/FKBP12B (Homo sapiens), sequence (P68106 whole entry partner, other chains not shown): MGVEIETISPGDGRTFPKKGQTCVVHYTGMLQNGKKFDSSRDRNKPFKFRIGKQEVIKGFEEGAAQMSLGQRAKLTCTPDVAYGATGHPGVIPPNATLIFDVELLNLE

[11] = molecular target: Serine/threonine-protein kinase PAK 4 (Homo sapiens) (UniProt O96013); experiment: Inhibition of human PAK4 at 10 uM after 60 mins by TR-FRET assay; values are per cent of control
Serine/threonine-protein kinase PAK 4 (Homo sapiens), sequence (O96013 whole entry, looked up): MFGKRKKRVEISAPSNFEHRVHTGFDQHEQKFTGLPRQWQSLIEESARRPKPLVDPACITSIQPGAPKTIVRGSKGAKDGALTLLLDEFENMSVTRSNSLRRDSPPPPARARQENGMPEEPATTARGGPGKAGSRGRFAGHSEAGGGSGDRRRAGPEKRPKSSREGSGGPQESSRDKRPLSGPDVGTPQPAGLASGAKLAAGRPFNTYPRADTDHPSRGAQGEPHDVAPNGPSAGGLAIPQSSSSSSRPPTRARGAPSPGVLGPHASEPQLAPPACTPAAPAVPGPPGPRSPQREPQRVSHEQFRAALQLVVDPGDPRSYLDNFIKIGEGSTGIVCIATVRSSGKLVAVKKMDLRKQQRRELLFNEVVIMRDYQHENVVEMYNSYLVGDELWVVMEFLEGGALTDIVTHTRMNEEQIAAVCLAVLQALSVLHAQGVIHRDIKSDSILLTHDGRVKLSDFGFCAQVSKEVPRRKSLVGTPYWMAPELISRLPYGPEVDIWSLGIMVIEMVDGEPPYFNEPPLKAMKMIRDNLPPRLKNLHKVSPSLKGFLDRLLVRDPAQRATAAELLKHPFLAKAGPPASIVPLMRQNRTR

[12] = molecular target: Vascular endothelial growth factor receptor 1 (Homo sapiens) (UniProt P17948); experiment: Inhibition of human Flt1 at 10 uM after 60 mins by TR-FRET assay; conditions: values are per cent of control
[13] = molecular target: G protein-coupled receptor kinase 5 (Homo sapiens) (UniProt P34947); experiment: Inhibition of human GRK5 at 10 uM after 60 mins by TR-FRET assay; values are per cent of control
[14] = test system: Serine/threonine-protein kinase Chk2 (Homo sapiens), O96017 [I157T]; experiment: Inhibition of human CHK2 I157T mutant at 10 uM after 60 mins by TR-FRET assay; values are per cent of control
Serine/threonine-protein kinase Chk2 (Homo sapiens), O96017 [I157T], sequence (O96017 whole entry I157T): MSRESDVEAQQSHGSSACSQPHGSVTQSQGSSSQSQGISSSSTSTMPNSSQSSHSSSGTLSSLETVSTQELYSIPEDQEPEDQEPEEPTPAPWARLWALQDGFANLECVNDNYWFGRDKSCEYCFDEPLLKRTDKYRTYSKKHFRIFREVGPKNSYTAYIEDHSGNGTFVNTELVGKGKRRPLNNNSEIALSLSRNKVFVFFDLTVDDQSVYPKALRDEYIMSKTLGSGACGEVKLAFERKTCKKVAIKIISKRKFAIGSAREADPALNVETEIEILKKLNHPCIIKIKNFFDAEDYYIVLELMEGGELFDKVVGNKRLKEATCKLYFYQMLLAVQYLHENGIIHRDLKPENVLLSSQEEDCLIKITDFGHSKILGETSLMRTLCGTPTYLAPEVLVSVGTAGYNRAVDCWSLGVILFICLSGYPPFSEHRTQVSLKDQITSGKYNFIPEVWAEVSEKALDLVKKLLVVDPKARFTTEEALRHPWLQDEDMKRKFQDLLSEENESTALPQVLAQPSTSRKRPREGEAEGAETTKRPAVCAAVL

[15] = molecular target: Homeodomain-interacting protein kinase 2 (Homo sapiens) (UniProt Q9H2X6); experiment: Inhibition of human HIPK2 at 10 uM after 60 mins by TR-FRET assay; values are per cent of control
[16] = molecular target: Serine/threonine-protein kinase BRSK2 (Homo sapiens) (UniProt Q8IWQ3); experiment: Inhibition of human BrSK2 at 10 uM after 60 mins by TR-FRET assay; values are per cent of control
[17] = molecular target: Proto-oncogene tyrosine-protein kinase receptor Ret (Homo sapiens) (UniProt P07949); experiment: Inhibition of human Ret at 10 uM after 60 mins by TR-FRET assay; values are per cent of control
[18] = molecular target: Rho-associated protein kinase 2 (Homo sapiens) (UniProt O75116); experiment: Inhibition of human ROCK-2 at 10 uM after 60 mins by TR-FRET assay; values are per cent of control
Rho-associated protein kinase 2 (Homo sapiens), sequence (O75116 whole entry, looked up): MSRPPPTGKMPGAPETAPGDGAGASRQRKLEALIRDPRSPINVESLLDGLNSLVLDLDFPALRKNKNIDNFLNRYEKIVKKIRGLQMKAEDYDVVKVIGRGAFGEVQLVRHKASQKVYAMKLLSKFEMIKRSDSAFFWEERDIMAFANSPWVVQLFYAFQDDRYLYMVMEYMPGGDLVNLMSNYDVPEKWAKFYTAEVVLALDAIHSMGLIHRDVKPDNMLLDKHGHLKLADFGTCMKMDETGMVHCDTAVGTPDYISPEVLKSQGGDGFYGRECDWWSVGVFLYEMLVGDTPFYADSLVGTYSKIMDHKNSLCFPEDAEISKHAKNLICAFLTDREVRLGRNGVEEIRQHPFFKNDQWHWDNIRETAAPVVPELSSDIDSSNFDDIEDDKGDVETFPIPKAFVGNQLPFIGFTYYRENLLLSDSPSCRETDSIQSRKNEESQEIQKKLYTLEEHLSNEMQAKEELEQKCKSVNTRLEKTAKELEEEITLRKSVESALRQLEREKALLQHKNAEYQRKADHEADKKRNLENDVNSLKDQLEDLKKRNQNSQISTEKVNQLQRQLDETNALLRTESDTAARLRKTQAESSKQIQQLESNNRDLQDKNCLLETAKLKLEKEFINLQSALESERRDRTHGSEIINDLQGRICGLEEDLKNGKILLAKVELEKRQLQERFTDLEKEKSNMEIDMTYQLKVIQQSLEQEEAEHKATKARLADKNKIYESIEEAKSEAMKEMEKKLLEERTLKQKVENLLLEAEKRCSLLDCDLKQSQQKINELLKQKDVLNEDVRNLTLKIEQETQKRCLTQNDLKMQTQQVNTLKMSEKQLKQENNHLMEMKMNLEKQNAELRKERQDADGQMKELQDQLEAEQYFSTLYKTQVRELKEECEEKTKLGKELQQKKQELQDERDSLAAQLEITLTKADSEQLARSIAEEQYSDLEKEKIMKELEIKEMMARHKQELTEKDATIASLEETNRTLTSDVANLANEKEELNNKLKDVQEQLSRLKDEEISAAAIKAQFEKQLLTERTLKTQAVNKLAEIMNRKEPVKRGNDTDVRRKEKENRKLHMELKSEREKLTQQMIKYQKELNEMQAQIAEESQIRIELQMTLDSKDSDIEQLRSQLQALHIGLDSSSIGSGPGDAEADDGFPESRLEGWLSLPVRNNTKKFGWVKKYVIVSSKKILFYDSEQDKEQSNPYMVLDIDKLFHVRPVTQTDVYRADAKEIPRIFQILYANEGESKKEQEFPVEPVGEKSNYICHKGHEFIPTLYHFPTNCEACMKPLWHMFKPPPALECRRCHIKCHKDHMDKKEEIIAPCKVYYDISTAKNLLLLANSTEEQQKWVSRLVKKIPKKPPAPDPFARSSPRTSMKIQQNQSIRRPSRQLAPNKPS

[19] = test system: Mast/stem cell growth factor receptor Kit (Homo sapiens), P10721 [D816H]; experiment: Inhibition of human c-Kit D816H mutant at 10 uM after 60 mins by TR-FRET assay; values are per cent of control
[20] = molecular target: Serine/threonine-protein kinase TAO3 (Homo sapiens) (UniProt Q9H2K8); experiment: Inhibition of human TAO3 at 10 uM after 60 mins by TR-FRET assay; values are per cent of control
[21] = molecular target: Serine/threonine-protein kinase 33 (Homo sapiens) (UniProt Q9BYT3); experiment: Inhibition of human STK33 at 10 uM after 60 mins by TR-FRET assay; values are per cent of control
[22] = molecular target: Tyrosine-protein kinase ABL2 (Mus musculus) (UniProt Q4JIM5); experiment: Inhibition of mouse Arg at 10 uM after 60 mins by TR-FRET assay; values are per cent of control
Tyrosine-protein kinase ABL2 (Mus musculus), sequence (Q4JIM5 whole entry): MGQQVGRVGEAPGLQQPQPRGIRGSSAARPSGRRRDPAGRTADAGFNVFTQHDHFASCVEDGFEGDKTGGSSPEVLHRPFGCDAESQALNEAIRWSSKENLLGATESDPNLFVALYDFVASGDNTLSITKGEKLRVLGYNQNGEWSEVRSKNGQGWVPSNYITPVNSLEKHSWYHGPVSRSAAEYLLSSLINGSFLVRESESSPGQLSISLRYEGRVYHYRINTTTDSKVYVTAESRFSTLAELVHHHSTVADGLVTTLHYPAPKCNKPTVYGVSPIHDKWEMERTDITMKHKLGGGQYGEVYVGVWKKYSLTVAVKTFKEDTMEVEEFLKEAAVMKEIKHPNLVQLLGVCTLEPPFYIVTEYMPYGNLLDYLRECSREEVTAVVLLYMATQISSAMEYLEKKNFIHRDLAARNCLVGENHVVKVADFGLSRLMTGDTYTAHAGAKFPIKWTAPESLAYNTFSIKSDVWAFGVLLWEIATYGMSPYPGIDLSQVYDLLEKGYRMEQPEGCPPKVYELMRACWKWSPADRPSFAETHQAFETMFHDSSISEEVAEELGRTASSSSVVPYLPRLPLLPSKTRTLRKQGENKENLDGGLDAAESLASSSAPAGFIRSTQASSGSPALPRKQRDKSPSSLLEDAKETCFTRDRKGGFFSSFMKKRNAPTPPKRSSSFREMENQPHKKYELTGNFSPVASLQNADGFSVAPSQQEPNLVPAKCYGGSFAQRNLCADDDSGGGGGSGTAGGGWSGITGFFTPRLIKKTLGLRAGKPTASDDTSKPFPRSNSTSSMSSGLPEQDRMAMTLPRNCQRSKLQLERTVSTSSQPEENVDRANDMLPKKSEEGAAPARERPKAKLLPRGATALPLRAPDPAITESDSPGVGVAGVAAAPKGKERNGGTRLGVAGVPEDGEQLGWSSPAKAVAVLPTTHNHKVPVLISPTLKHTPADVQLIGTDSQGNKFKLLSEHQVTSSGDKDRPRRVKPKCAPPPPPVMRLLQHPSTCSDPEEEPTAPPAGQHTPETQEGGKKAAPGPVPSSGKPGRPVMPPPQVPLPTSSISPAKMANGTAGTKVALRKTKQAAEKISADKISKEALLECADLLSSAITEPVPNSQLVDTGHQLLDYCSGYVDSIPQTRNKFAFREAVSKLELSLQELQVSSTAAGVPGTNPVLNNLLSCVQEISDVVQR

[23] = molecular target: Mitogen-activated protein kinase 9 (Homo sapiens, UniProt P45984); conditions: 10 uM
Mitogen-activated protein kinase 9, sequence (P45984 whole entry, looked up): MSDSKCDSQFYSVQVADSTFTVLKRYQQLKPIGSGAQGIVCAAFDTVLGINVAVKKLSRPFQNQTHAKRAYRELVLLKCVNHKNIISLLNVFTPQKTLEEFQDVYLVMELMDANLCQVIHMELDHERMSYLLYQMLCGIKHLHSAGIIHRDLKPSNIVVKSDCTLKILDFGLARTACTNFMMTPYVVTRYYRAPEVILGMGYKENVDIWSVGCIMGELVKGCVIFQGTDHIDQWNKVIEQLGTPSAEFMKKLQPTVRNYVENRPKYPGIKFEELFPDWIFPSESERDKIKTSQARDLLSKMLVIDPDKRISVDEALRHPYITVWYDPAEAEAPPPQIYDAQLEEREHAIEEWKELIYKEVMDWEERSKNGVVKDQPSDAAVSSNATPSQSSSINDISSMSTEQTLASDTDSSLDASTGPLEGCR
Description: Inhibition of human JNK2alpha2 at 10 uM after 60 mins by TR-FRET assay

[24] = molecular target: Serine/threonine-protein kinase Nek2 (Homo sapiens) (UniProt P51955); experiment: Inhibition of human NEK2 at 10 uM after 60 mins by TR-FRET assay; values are per cent of control
[25] = molecular target: Calcium/calmodulin-dependent protein kinase type 1 (Homo sapiens) (UniProt Q14012); experiment: Inhibition of human CaMK1 at 10 uM after 60 mins by TR-FRET assay; values are per cent of control
[26] = molecular target: Serine/threonine-protein kinase MRCK alpha (Homo sapiens) (UniProt Q5VT25); experiment: Inhibition of human MRCKalpha at 10 uM after 60 mins by TR-FRET assay; values are per cent of control
[27] = molecular target: Cyclin-dependent kinase 7/ cyclin H (Homo sapiens) (UniProt P51946+P50613); experiment: Inhibition of human CDK7/cyclinH/MAT1 at 10 uM after 60 mins by TR-FRET assay; values are per cent of control
[28] = molecular target: RAC-gamma serine/threonine-protein kinase (Homo sapiens) (UniProt Q9Y243); experiment: Inhibition of human PKBgamma at 10 uM after 60 mins by TR-FRET assay; values are per cent of control

- residual activity [1]: 105%
- residual activity [2]: 111%
- residual activity [3]: 110%
- residual activity [4]: 93%
- residual activity [5]: 110%
- residual activity [6]: 106%
- residual activity [7]: 100%
- residual activity [8]: 93%
- residual activity [9]: 105%
- residual activity [10]: 107%
- residual activity [11]: 112%
- residual activity [12]: 107%
- residual activity [13]: 115%
- residual activity [14]: 108%
- residual activity [15]: 95%
- residual activity [16]: 103%
- residual activity [17]: 108%
- residual activity [18]: 101%
- residual activity [19]: 114%
- residual activity [20]: 91%
- residual activity [21]: 107%
- residual activity [22]: 101%
- inhibition [23]: 88%
- residual activity [24]: 110%
- residual activity [25]: 105%
- residual activity [26]: 105%
- residual activity [27]: 113%
- residual activity [28]: 110%
SMILES: S=c1[nH]nc(-c2ccncc2)n1-c1ccc2ccccc2c1
